Measured values as given in patent US20020137929A1, “1 - (3-heterocyclylphenyl) isothiourea, -isourea, -guanidine and -amidine herbicidal agents” (Intellectual Property Department, BASF Aktiengesellschaft, priority 1998, published 2002).

Columns and labels:
CASOB (Sicklepod) = assay: Postemergence herbicidal evaluation; type: in vivo, Cassia obtusifolia; conditions: postemergence
Method in brief: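 Each compound, dispersed in an acetone/water mix (50/50) carrying 0.5% TWEEN 20, is nozzle-sprayed at 40 psi on approximately two-week-old seedlings at about 0.0156–0.500 kg/ha. Plants are assessed 4–5 weeks afterward on a 0–9 scale relative to control; duplicate tests are averaged.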

[1] = test system: IPOSS (Morningglory Spp.); assay: Postemergence herbicidal evaluation; type: in vivo, Ipomoea Spp.
Description: In the tests, seedling plants are grown in jiffy flats for about two weeks. The test compounds are dispersed in 50/50 acetone/water mixtures containing 0.5% TWEEN®20, a polyoxyethylene sorbitan monolaurate surfactant of Atlas Chemical Industries, in sufficient quantities to provide the equivalent of about 0.0156 kg to 0.500 kg per hectare of active compound when applied to the plants through a spray nozzle operating at 40 psi for a predetermined time. After spraying, the plants are placed on greenhouse benches and are cared for in accordance with conventional greenhouse procedures. From four to five weeks after treatment, the seedling plants are examined and rated according to the rating system set forth below. Where more than one test is involved for a given compound, the data are averaged.
Plant species employed in these evaluations are reported by header abbreviation, common name and scientific name.
(§1) Results of herbicide evaluation are expressed on a rating scale (0-9). The scale is based upon a visual observation of plant stand, vigor, malformation, size, chlorosis and overall plant appearance as compared with a control.

[2] = test system: IPOSS (Morningglory Spp.); assay: Preemergence herbicidal evaluation; type: in vivo, Ipomoea Spp.; conditions: rated 4-5 weeks after treatment
Text: as §1
The preemergence herbicidal activity of the test compounds of the present invention is exemplified by the following tests in which the seeds of a variety of monocotyledonous and dicotyledonous plants are separately mixed with potting soil and planted on top of approximately one inch of soil in separate pint cups. After planting, the cups are sprayed with the selected aqueous acetone solution containing test compound in sufficient quantity to provide the equivalent of about 0.0156 to 0.500 kg per hectare of test compound per cup. The treated cups are then placed on greenhouse benches, watered and cared for in accordance with conventional greenhouse procedures. From four to five weeks after treatment, the tests are terminated and each cup is examined and rated according to the rating system provided in Example 37.
The compounds evaluated are reported by compound number given in Example 37.

[3] = test system: GLXMAW (Soybean, Williams); assay: Preemergence herbicidal evaluation; type: in vivo, Glycine max, (L.) Merr. cv Williams; conditions: rated 4-5 weeks after treatment
Method in brief: (§2)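 In this greenhouse assay, monocot and dicot seeds are planted in soil and treated prior to emergence with an aqueous acetone spray (about 0.0156-0.500 kg/ha). Plants are assessed visually against control on a 0-9 scale after 4-5 weeks.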

ORYSAT (Rice, Tebonnet) = assay: Preemergence herbicidal evaluation; type: in vivo, Oryza sativa, (L.) Tebonnet; conditions: rated 4-5 weeks after treatment
Method in brief: as §2

[4] = test system: TRZAWR (Wheat, Winter, cv Riband); assay: Preemergence herbicidal evaluation; type: in vivo, Triticum aestivum; conditions: rated 4-5 weeks after treatment
Method in brief: as §2

[5] = test system: SAGPY (Arrowhead (Pygmaea)); assay: Preemergence weed control under flooded paddy conditions; type: in vivo, Sagittaria pygmaea; conditions: rated 3-4 weeks after treatment
Method in brief: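 Herbicidal effect is scored visually on a 0-9 scale against an untreated control, three to four weeks after compounds are pipetted into the flood water (1.5 to 3 cm deep) over seeds planted in silt loam at 0.5 cm depth. Rates: about 0.0313 to 0.500 kg/ha.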

MOOVA (Monochoria) = assay: Postemergence weed control under flooded paddy conditions; type: in vivo, Monochoria vaginalis; conditions: postemergence weeds, 3-4 weeks after treatment
Method in brief: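 Containers holding 3–5 cm weeds and rice at 1.5–2.5 leaves are flooded to 1.5–3 cm above soil. Compound in 50/50 v/v aqueous/acetone is then added directly to the water, about 0.0313–0.500 kg/ha. Plants are kept in the greenhouse and rated 0–9 visually at 3–4 weeks.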

## C=CCN1C(=O)CSC1=Nc1cc(N2C(=O)C3=C(CCCC3)C2=O)c(F)cc1Cl [Compound 2, N-{5-[(3-allyl-4-oxo-2-thiazolidinylidene)amino]-4-chloro-2-fluorophenyl}-1-cyclohexene-1,2-dicarboximide]
CASOB (Sicklepod); rate 0.0157 kg/ha
  CASOB herbicidal rating: 4.0
CASOB (Sicklepod); rate 0.0313 kg/ha
  CASOB herbicidal rating: 4.0
CASOB (Sicklepod); rate 0.0625 kg/ha
  CASOB herbicidal rating: 2.0
CASOB (Sicklepod); rate 0.1250 kg/ha
  CASOB herbicidal rating: 2.0
CASOB (Sicklepod); rate 0.2500 kg/ha
  CASOB herbicidal rating: 4.0
CASOB (Sicklepod); rate 0.5000 kg/ha
  CASOB herbicidal rating: 7.0
[1]; rate 0.0157 kg/ha
  IPOSS herbicidal rating: 4.0
[1]; rate 0.0313 kg/ha
  IPOSS herbicidal rating: 4.0
[1]; rate 0.0625 kg/ha
  IPOSS herbicidal rating: 4.0
[1]; rate 0.1250 kg/ha
  IPOSS herbicidal rating: 6.0
[1]; rate 0.2500 kg/ha
  IPOSS herbicidal rating: 9.0
[1]; rate 0.5000 kg/ha
  IPOSS herbicidal rating: 9.0
[2]; rate 0.0313 kg/ha
  IPOSS preemergence herbicidal rating: 0.0
[2]; rate 0.0625 kg/ha
  IPOSS preemergence herbicidal rating: 0.0
[2]; rate 0.1250 kg/ha
  IPOSS preemergence herbicidal rating: 0.0
[2]; rate 0.2500 kg/ha
  IPOSS preemergence herbicidal rating: 0.0
[2]; rate 0.5000 kg/ha
  IPOSS preemergence herbicidal rating: 0.0
[3]; rate 0.0313 kg/ha
  GLXMAW preemergence herbicidal rating: 0.0
[3]; rate 0.0625 kg/ha
  GLXMAW preemergence herbicidal rating: 0.0
[3]; rate 0.1250 kg/ha
  GLXMAW preemergence herbicidal rating: 0.0
[3]; rate 0.2500 kg/ha
  GLXMAW preemergence herbicidal rating: 0.0
[3]; rate 0.5000 kg/ha
  GLXMAW preemergence herbicidal rating: 1.0
ORYSAT (Rice, Tebonnet); rate 0.0313 kg/ha
  ORYSAT preemergence herbicidal rating: 2.0
ORYSAT (Rice, Tebonnet); rate 0.0625 kg/ha
  ORYSAT preemergence herbicidal rating: 2.0
ORYSAT (Rice, Tebonnet); rate 0.1250 kg/ha
  ORYSAT preemergence herbicidal rating: 2.0
ORYSAT (Rice, Tebonnet); rate 0.2500 kg/ha
  ORYSAT preemergence herbicidal rating: 2.0
ORYSAT (Rice, Tebonnet); rate 0.5000 kg/ha
  ORYSAT preemergence herbicidal rating: 3.0
[4]; rate 0.0313 kg/ha
  TRZAWR preemergence herbicidal rating: 0.0
[4]; rate 0.0625 kg/ha
  TRZAWR preemergence herbicidal rating: 0.0
[4]; rate 0.1250 kg/ha
  TRZAWR preemergence herbicidal rating: 0.0
[4]; rate 0.2500 kg/ha
  TRZAWR preemergence herbicidal rating: 0.0
[4]; rate 0.5000 kg/ha
  TRZAWR preemergence herbicidal rating: 0.0
[5]; 0.0313 kg/ha
  Herbicidal rating SAGPY: 0.0
[5]; 0.0625 kg/ha
  Herbicidal rating SAGPY: 0.0
[5]; 0.1250 kg/ha
  Herbicidal rating SAGPY: 0.0
[5]; 0.2500 kg/ha
  Herbicidal rating SAGPY: 0.0
[5]; 0.5000 kg/ha
  Herbicidal rating SAGPY: 0.0
MOOVA (Monochoria); rate 0.0313 kg/ha
  Herbicidal rating MOOVA: 2.0
MOOVA (Monochoria); rate 0.0625 kg/ha
  Herbicidal rating MOOVA: 4.5
MOOVA (Monochoria); rate 0.1250 kg/ha
  Herbicidal rating MOOVA: 5.5
MOOVA (Monochoria); rate 0.2500 kg/ha
  Herbicidal rating MOOVA: 9.0
MOOVA (Monochoria); rate 0.5000 kg/ha
  Herbicidal rating MOOVA: 9.0
